In US8551984B2, “Aminopyrimidines as SYK inhibitors” (Merck Sharp & Dohme Corp., priority 2009, dated 2013):

Biological target: rhSYK (Homo sapiens, UniProt P43405)
Conditions: read-out: rhSYK Activity; class symbol; where two forms are listed, one symbol per form

Row | Structure (SMILES) | IC50 [nM]
1 | Cc1cc(Nc2nccc(C(F)(F)F)n2)cc(-c2cnc(C3(O)CC4C(Br)CC3C4C(=O)O)s2)c1 (stereo not drawn) [Example 4B-53] | < 100
2 | Cc1cc(Nc2nccc(C(F)(F)F)n2)cc(-c2cnc(C3(O)CC4C(Br)CC3C4C(=O)O)s2)c1 (stereo not drawn) [Example 4B-54] | < 100
3 | Cc1cc(Nc2nccc(C(F)(F)F)n2)cc(-c2cnc(C(=O)CCC#N)s2)c1 [Example 4B-59] | < 100
4 | Cc1cc(Nc2nccc(C(F)(F)F)n2)cc(-c2cnc(C(=O)CCC(=O)CCO)s2)c1 [Example 4B-62] | 100 to 1000
5 | Cc1cc(Nc2nccc(C(F)(F)F)n2)cc(-c2cnc(C3(O)CCC(CN)CC3)s2)c1 (stereo not drawn) [Example 4C-4] | < 100
6 | Cc1cc(Nc2nccc(C(F)(F)F)n2)cc(-c2cnc([C@]3(O)CC[C@H](CO)CC3)s2)c1 [Example 4C-6] | < 100
7 | Cc1cc(Nc2nccc(C(F)(F)F)n2)cc(-c2cnc(C3(O)CCC(CO)CC3)s2)c1 (stereo not drawn) [Example 4C-7] | < 100
8 | Cc1cc(Nc2nccc(C(F)(F)F)n2)cc(-c2cnc([C@]3(O)CC[C@@H](CO)CC3)s2)c1 [Example 4C-8] | < 100
9 | Cc1cc(Nc2nccc(C(F)(F)F)n2)cc(-c2cnc([C@]3(O)CC[C@@H](CC(=O)O)CC3)s2)c1 [Example 4C-14] | < 100
10 | Cc1cc(Nc2nccc(C(F)(F)F)n2)cc(-c2cnc([C@]3(O)CC[C@H](CC(=O)O)CC3)s2)c1 [Example 4C-15] | < 100
11 | CCOC(=O)C(O)(c1ncc(-c2cc(C)cc(Nc3nccc(C(F)(F)F)n3)c2)s1)C(F)(F)F (stereo not drawn) [Example 6-6] | < 100

Other lines, results leading:

Row | IC50 [nM] | Structure (SMILES)
12 | 100 to 1000 | CCOC(=O)C1CCCC(O)(c2ncc(-c3cc(C)cc(Nc4nccc(C(F)(F)F)n4)c3)s2)C1 (stereo not drawn) [Example 4C-21]
13 | 100 to 1000 | COC(=O)C1CCC(O)(c2ncc(-c3cc(C)cc(Nc4nccc(C(F)(F)F)n4)c3)s2)CC1C(C)C (stereo not drawn) [Example 4C-25]
14 | < 100 | Cc1cc(Nc2nccc(C(F)(F)F)n2)cc(-c2cnc(C3(O)CCC(CC(C)(C)C(=O)O)CC3)s2)c1 (stereo not drawn) [Example 4C-26]
15 | < 100 | Cc1cc(Nc2nccc(C(F)(F)F)n2)cc(-c2cnc([C@]3(O)CC[C@@H](NC(=O)Cn4ccnc4)CC3)s2)c1 [Example 4C-29]
16 | < 100 | Cc1cc(Nc2nccc(C(F)(F)F)n2)cc(-c2cnc(C3(O)CCC(NC(=O)C4CCC(=O)O4)CC3)s2)c1 (stereo not drawn) [Example 4C-30]
17 | < 100 | Cc1cc(Nc2nccc(C(F)(F)F)n2)cc(-c2cnc(C3(O)CCC(NC(=O)C4CCC(=O)O4)CC3)s2)c1 (stereo not drawn) [Example 4C-31]
18 | < 100 | Cc1cc(Nc2nccc(C(F)(F)F)n2)cc(-c2cnc([C@]3(O)CC[C@@H](NC(=O)Cc4ccccn4)CC3)s2)c1 [Example 4C-32]
19 | < 100 | OC(c1ncc(-c2cccc(Nc3nccc(C(F)(F)F)n3)c2)s1)C(F)(F)F (stereo not drawn) [Example 6-2]
20 | < 100 | Cc1cc(Nc2nccc(C(F)(F)F)n2)cc(-c2cnc(C(O)(CO)C(F)(F)F)s2)c1 (stereo not drawn) [Example 6-7]
21 | < 100 | Cc1cc(Nc2nccc(C(F)(F)F)n2)cc(-c2cnc(C(C)(O)c3ccc(C(C)O)cc3)s2)c1 (stereo not drawn) [Example 8B-4]

Same assay, conditions: read-out: rhSYK activity; class symbol given

Row | IC50 [nM] | Structure (SMILES)
22 | < 100 | Cc1cc(Nc2nccc(C(F)(F)F)n2)cc(-c2cnc([C@]3(O)CC[C@@H](O)CC3)s2)c1 [Example 8(1), cis-1-[5-(3-methyl-5-{[4-(trifluoromethyl)pyrimidin-2-yl]amino}phenyl)-1,3-thiazol-2-yl]-cyclohexane-1,4-diol]
23 | < 100 | Cc1cc(Nc2nccc(C(F)(F)F)n2)cc(-c2cnc([C@]3(O)CC[C@](C)(O)CC3)s2)c1 [Example 9(1), trans-1-methyl-4-[5-(3-methyl-5-{[4-(trifluoromethyl)pyrimidin-2-yl]amino}phenyl)-1,3-thiazol-2-yl]cyclohexane-1,4-diol]
24 | 100 to 1000 | Cc1cc(Nc2nccc(C(F)(F)F)n2)cc(-c2cnc(C3(O)CCN(C(=O)OC(C)(C)C)CC3)s2)c1 [Example 45, tert-butyl-4-hydroxy-4-[5-(3-methyl-5-{[4-(trifluoromethyl)pyrimidin-2-yl]amino}phenyl)-1,3-thiazol-2-yl]piperidine-1-carboxylate]
